# Results as given in patent publication US6790629B2 (The Regents of the University of California, priority 1997, dated 2004).
# Tests used:
# VR1 [1] = biological target: T1, VR1 (Rattus norvegicus, UniProt O35433); test: Whole-cell two-electrode voltage clamp of VR1-expressing Xenopus oocytes (vanilloid agonists and antagonists); type: cell-based; details: for recovery of current response following agonist removal: washout; for Hill coefficient: from agonist concentration-response analysis in VR1-expressing oocytes
# T1 construct: open reading frame encoding a protein of 838 amino acids; expressed in transfected cells; host or cells: Xenopus laevis oocytes injected with VR1 cRNA
# Protocol: Briefly, cRNA transcripts were synthesized from Not1-linearized VR1 cDNA templates using T7 RNA polymerase 17. Defolliculated Xenopus laevis oocytes were injected with 0.5-5 ng VR1 cRNA. Four to seven days after injection, two electrode voltage clamp recording was performed (Ehold=−60 mV for IC50 curve and thermal stimulation experiments, and […] for all other experiments) using a Geneclamp 500 amplifier (Axon Instruments) and a MacLab A/D converter (Maclab). The recording chamber was perfused at a rate of 2 ml/min with frog ringers solution containing (mM) 90 NaCl; 1.0 KCl, 2.4 NaHCO3, 0.1 BaCl2, 1.0 MgCl2, and 10 HEPES, pH 7.6. at room temperature. Prior to performing the store-operated current assays, oocytes were incubated for 1-2 hrs in calcium-free, barium-free frog ringers solution containing 1 mM EGTA and 1 μM Thapsigargin. During voltage clamp recording, these oocytes were intermittently exposed to frog ringer's solution containing 2 mM Ca2+ and no EGTA to detect calcium-dependent currents (15 second pulses at 2 minute intervals) (Petersen et al. 1995 Biochem J. 311:4144).
# VR1 was expressed in Xenopus oocytes as described above (Example 3), except that CaCl2 (2 mM) was used in place of BaCl2 when generating the capsazepine inhibition curve. […] Membrane currents were recorded in the whole cell voltage clamp configuration (Vhold=−40 mV).
# VR1 [2] = biological target: T1, VR1; test: Two-electrode voltage clamp of VR1-injected oocytes: capsaicin, heat, heat plus ruthenium red; type: cell-based; details: n=5; for mean inward current response ± s.e.m.: Vhold=-60 mV
# Protocol: To determine whether VR1 could mediate similar responses to heat in a different cellular environment, heat activation of VR1 was tested in the oocyte system. Oocytes injected with either VR1 cRNA or water were subjected to two-electrode voltage-clamp (Vhold=−60 mV) while the temperature of the perfusing buffer was raised from 22.7° C. to the level indicated, then held constant for 60 sec. (VR1, n =8; water, n=6 independent cells).
# (§1) The current tracings shown in FIG. 17 were generated from representative VR1- or water-injected oocytes (Vhold=−60 mV) during successive applications of the indicated stimuli.
# VRRP-1 = biological target: T2, VRRP-1 (Rattus norvegicus, UniProt Q9WUD2); test: Activation of VRRP-1 by capsaicin
# T2 sequence (Q9WUD2 1-761): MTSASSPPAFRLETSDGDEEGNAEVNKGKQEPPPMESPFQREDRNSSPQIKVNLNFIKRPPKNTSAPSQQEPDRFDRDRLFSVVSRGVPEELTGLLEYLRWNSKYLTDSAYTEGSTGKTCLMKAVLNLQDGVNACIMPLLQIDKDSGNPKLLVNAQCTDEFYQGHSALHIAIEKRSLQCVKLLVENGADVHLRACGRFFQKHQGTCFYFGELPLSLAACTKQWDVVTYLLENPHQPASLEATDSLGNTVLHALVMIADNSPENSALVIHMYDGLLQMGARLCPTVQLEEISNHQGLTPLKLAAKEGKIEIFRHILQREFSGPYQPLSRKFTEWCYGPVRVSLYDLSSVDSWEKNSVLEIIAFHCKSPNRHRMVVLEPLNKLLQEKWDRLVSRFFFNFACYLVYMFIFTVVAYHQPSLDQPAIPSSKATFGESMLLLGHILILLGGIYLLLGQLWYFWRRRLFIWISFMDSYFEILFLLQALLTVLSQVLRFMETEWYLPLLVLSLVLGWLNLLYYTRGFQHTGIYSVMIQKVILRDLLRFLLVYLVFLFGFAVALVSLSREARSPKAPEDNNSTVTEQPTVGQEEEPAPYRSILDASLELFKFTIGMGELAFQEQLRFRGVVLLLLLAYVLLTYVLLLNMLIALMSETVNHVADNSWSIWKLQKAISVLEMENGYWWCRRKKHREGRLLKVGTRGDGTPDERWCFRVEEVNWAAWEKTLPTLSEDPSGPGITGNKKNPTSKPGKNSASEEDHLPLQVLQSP
# [3] = tested on: chick orthologue of rat VR1 (pCVR2); test: Electrophysiological and calcium-imaging analysis of HEK293 cells transfected with pCVR2; type: cell-based
# VR1 [4] = biological target: T1, VR1; test: Hydrogen ion potentiation of capsaicin response in VR1-expressing oocytes; type: cell-based; details: 10 μM capsaicin
# Description: To address this possibility, the effects of hydrogen ions on the cloned vanilloid receptor were examined using the oocyte expression system. […] The pH of the bath solution was changed during the experiment (as indicated by the horizontal bars in FIG. 13).
# VR1 [5] = biological target: T1, VR1; test: Whole-cell patch clamp of VR1-transfected HEK293 cells, desensitization of capsaicin-evoked current; type: cell-based
# Protocol: Patch-clamp recordings were carried out with transiently transfected HEK293 cells at 22° C. Standard bath solution for whole-cell recordings contained (mM) 140 NaCl, 5 KCl, 2 MgCl2, 2 CaCl2, 10 HEPES, 10 glucose, pH 7.4 (adjusted with NaOH). In calcium-free bath solution, CaCl2 was removed and 5 mM EGTA was added.
# Bath solution for outside-out patch recordings and pipette solution for inside-out patch recordings contained (mM) 140 NaCl, 10 HEPES, pH 7.4 (adjusted with NaOH). Bath solution for inside-out patch recordings and pipette solutions for outside-out patch recordings and ion substitution experiments contained: (mM) 140 NaCl, 10 HEPES, 5 EGTA, pH 7.4 (adjusted with NaOH). Pipette solution for whole-cell recordings contained (mM) 140 CsCl (or 130 CsAspartate and 10 NaCl), 5 EGTA, 10 HEPES, pH 7.4 (adjusted with CsOH).
# Whole-cell recording data were sampled at 20 kHz and filtered at 5 kHz for analysis (Axopatch 200 amplifier with pCLAMP software, Axon Instruments). Single-channel recording data were sampled at 10 kHz and filtered at 1 kHz. Permeability ratios for monovalent cations to Na (PX/PNa) were calculated as follows:
# water-injected oocytes = test: Two-electrode voltage clamp of water-injected control oocytes: capsaicin, heat, heat plus ruthenium red; type: cell-based, Xenopus
# Protocol: To determine whether VR1 could mediate similar responses to heat in a different cellular environment, heat activation of VR1 was tested in the oocyte system. Oocytes injected with either VR1 cRNA or water were subjected to two-electrode voltage-clamp (Vhold=−60 mV) while the temperature of the perfusing buffer was raised from 22.7° C. to the level indicated, then held constant for 60 sec. (VR1, n =8; water, n=6 independent cells). The asterisk indicates a significant difference from water-injected oocytes (T-test, P<0.0005).
# as §1
# T1 sequence (O35433 whole entry): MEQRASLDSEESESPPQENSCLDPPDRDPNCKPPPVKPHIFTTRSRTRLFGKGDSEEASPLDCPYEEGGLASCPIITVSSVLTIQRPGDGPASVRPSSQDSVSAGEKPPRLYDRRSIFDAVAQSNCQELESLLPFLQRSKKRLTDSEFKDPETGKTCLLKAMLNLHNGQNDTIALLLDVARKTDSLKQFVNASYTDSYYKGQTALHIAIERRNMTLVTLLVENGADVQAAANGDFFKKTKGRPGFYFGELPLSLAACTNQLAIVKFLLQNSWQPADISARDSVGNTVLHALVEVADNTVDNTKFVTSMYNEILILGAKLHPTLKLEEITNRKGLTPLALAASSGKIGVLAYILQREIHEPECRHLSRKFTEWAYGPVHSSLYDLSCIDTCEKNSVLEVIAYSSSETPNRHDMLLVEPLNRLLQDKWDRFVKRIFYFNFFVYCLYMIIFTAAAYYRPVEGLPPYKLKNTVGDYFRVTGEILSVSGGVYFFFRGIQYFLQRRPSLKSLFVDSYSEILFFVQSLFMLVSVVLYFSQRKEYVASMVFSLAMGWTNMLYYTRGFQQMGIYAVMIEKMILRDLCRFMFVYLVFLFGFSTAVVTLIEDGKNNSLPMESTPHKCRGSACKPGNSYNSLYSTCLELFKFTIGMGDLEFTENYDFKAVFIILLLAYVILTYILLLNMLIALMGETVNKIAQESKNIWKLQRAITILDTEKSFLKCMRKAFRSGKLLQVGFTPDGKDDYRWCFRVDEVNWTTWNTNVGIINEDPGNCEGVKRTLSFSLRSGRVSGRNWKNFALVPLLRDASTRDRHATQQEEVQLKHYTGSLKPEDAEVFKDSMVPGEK
compound,measurement,setting,value
COc1ccc(CCCOC(Cn2ccnc2)c2ccc(OC)cc2)cc1 (centres unmarked) [SKF 96365],effect on capsaicin-evoked currents,"VR1 [1]; SKF 96365 20 μM, VR1-expressing oocytes",no effect
COc1cc(CNC(=O)CCCC/C=C/C(C)C)ccc1O [capsaicin],mean inward current response ± s.e.m.,VR1 [2]; capsaicin 1 μM,1221±148 nA
same,activation of VRRP-1,VRRP-1,does not appear to be activated
same,response of the encoded protein,[3]; capsaicin,not to capsaicin
same,effect of reduced pH on capsaicin response,VR1 [4],did not augment
same,decrease of response between first and third applications,"VR1 [5]; absence of extracellular calcium, n=3",4.7±2.3%
same,decrease of response between first and third applications (desensitizing component),"VR1 [5]; calcium-containing bath solution, n=5",87±4.3%
same,recovery of current response following agonist removal,VR1 [1]; VR1-expressing oocytes,returned rapidly to baseline
same,Hill coefficient,VR1 [1],2.08
same,response to capsaicin,water-injected oocytes,no response
Oc1cc2c(cc1O)CN(C(=S)NCCc1ccc(Cl)cc1)CCC2 [capsazepine],IC50,"VR1 [1]; VR1-expressing oocytes, CaCl2 2 mM in place of BaCl2, read-out: IC50, block of capsaicin-evoked responses",283 nM
same,antagonism of responses to resiniferatoxin (50 nM),VR1 [1]; capsazepine 5 μM,reversibly antagonized
same,block of capsaicin activity (cap; 0.6 μM),VR1 [1]; capsazepine 10 μM,reversible
C=C(C)[C@]12C[C@@H](C)[C@@]34O[C@](Cc5ccccc5)(O[C@@H]1[C@@H]3C=C(COC(=O)Cc1ccc(O)c(OC)c1)C[C@]1(O)C(=O)C(C)=C[C@@H]41)O2 [resiniferatoxin],response of the encoded protein,[3]; high doses of resiniferatoxin,responds
same,EC50,VR1 [1],39.1 nM
same,potency relative to capsaicin,VR1 [1]; EC50 comparison in VR1-expressing oocytes,approximately 20 fold
same,recovery of current response following agonist removal,VR1 [1]; VR1-expressing oocytes,often failed to recover
same,Hill coefficient,VR1 [1],1.95
N.N.N.N.N.N.N.N.N.N.N.N.N.N.[Cl-].[Cl-].[Cl-].[Cl-].[Cl-].[Cl-].[O-2].[O-2].[Ru+3].[Ru+3].[Ru+4] [ruthenium red],mean inward current response ± s.e.m.,VR1 [2]; heat (50° C.) plus ruthenium red 10 μM,243±47 nA
same,inhibition of heat response,"VR1 [2]; ruthenium red 10 μM, heat 50° C., VR1-injected oocytes",88±2%
same,antagonism of responses to resiniferatoxin (50 nM),VR1 [1]; ruthenium red 10 μM,reversibly antagonized
same,block of capsaicin-evoked responses (cap; 0.6 μM),VR1 [1]; ruthenium red 10 μM,blocked capsaicin-evoked responses
same,inhibition of heat response,"water-injected oocytes; ruthenium red 10 μM, n=5",21±26%
